This passage reports melting point results from patent US6495693B2, “N-(aryl/heteroaryl) amino acid derivatives, pharmaceutical compositions comprising same, and methods for inhibiting β-amyloid peptide release and/or its synthesis by use of such compounds” (Athena Neurosciences, Inc., priority 1996, dated 2002).

In the case of `CC(Nc1ccc(Cl)c(Cl)c1)C(=O)N[C@H](C(=O)N(C)C)C(C)C` (mixture of isomers) [Example 8, N-[N-(3,4-dichlorophenyl)-D,L-alanyl]-L-valine N,N-dimethyl amide], the melting point lay within 145 to 160 °C.
The figure for `CC(Nc1ccc(Cl)c(Cl)c1)C(=O)NC(=O)[C@@H](N)C(C)C` (mixture of isomers) [Example 6, N-[N-(3,4dichlorophenyl)-D,L-alanyl]-L-valine amide] is 156 to 158 °C.
Turning to `COC(=O)[C@H](Cc1c[nH]c2ccccc12)NC(=O)C(C)Nc1ccc(Cl)c(Cl)c1` (mixture of isomers) [Example 16, N-[N-(3,4dichlorophenyl)-D,L-alanyl]-L-tryptophan methyl ester], the melting point was 54 to 66 °C.
Take `CCCC[C@H](NC(=O)C(C)Nc1cc(F)cc(F)c1)C(=O)OC` (mixture of isomers) [Example 50, N-[N-(3,5-difluorophenyl)-D,L-alanyl]-(S)-2-aminohexanoic acid methyl ester]: the melting point is 93 to 95 °C.
As to `COC(=O)[C@H](Cc1ccccc1)NC(=O)[C@H](C)Nc1ccc(Cl)c(Cl)c1` [Example 12, N-[N-(3,4-dichlorophenyl)-L-alanyl]-L-phenylalanine methyl ester], the melting point lay in the range of 122 to 124.5 °C.
As for `CCCC[C@H](N)C(=O)NC(=O)[C@H](C)Nc1ccc(Cl)c(Cl)c1` [Example 40, N-[N-(3,4-dichlorophenyl)-L-alanyl]-(S)-2-aminohexanamide], the figure is 156 to 161 °C; as for `COC(=O)[C@H](C)NC(=O)C(C)Nc1cc(F)cc(F)c1` (mixture of isomers) [Example 49, N-[N-(3,5-difluorophenyl)-D,L-alanyl]-L-alanine methyl ester], 93 to 95 °C; as for `COC(=O)[C@H](CC(C)C)NC(=O)[C@H](C)Nc1ccc(Cl)c(Cl)c1` [Example 11, N-[N-(3,4dichlorophenyl)-L-alanyl]-L-leucine methyl ester], 120 to 132 °C.
The figure for `CCCC[C@H](NC(=O)[C@H](C)Nc1nc2ccccc2s1)C(=O)OC` [Example 48, N-[N-(benzothiazol-2-yl)-L-alanyl]-(S)-2-aminohexanoic acid methyl ester] is 99 to 120 °C; for `CCCC[C@H](NC(=O)[C@H](C)Nc1ccc(Cl)c(Cl)c1)C(=O)OC` [Example 15, N-[N-(3,4dichlorophenyl)-L-alanyl]-(S)-2-aminohexanoic acid methyl ester] it is 163 to 165 °C.
In turn, `COC(=O)[C@H](Cc1c[nH]cn1)NC(=O)C(C)Nc1ccc(Cl)c(Cl)c1` (mixture of isomers) [Example 46, N-[N-(3,4-dichlorophenyl)-D,L-alanyl]-L-histidine methyl ester] yielded a melting point of 55 to 60 °C.
For `COC(=O)[C@H](CC(=O)O)NC(=O)C(C)Nc1ccc(Cl)c(Cl)c1` (mixture of isomers) [Example 18, N-[N-(3,4dichlorophenyl)-D,L-alanyl]-L-aspartic acid methyl ester], the melting point fell in the range of 53.5 to 56 °C.
Consider `CC(Nc1ccc(Cl)c(Cl)c1)C(=O)NC(=O)[C@@H](N)Cc1ccccc1` (mixture of isomers) [Example 36, N-[N-(3,4dichlorophenyl)-D,L-alanyl]-L-phenylalanine amide], for which the melting point was in the range of 177 to 179 °C.
For `CCCC[C@H](N)C(=O)NC(=O)[C@H](C)Nc1ccc(Cl)c(Cl)c1` [Example 51, N-[N-(3,4dichlorophenyl)-L-alanyl]-(S)-2-aminohexanamide], the melting point lay in the range of 184 to 186 °C.

By melting point is commonly meant the temperature of the solid-liquid transition.
